For 3 compounds, residual activity results are on record in ChEMBL document CHEMBL5649166, “RIP3 induces apoptosis independent of pronecrotic kinase activity” (Mol Cell, 2014).

For assay [1], the target named is T1, cGMP-dependent protein kinase 2 (Homo sapiens) (UniProt Q13237).
T1 sequence (whole entry): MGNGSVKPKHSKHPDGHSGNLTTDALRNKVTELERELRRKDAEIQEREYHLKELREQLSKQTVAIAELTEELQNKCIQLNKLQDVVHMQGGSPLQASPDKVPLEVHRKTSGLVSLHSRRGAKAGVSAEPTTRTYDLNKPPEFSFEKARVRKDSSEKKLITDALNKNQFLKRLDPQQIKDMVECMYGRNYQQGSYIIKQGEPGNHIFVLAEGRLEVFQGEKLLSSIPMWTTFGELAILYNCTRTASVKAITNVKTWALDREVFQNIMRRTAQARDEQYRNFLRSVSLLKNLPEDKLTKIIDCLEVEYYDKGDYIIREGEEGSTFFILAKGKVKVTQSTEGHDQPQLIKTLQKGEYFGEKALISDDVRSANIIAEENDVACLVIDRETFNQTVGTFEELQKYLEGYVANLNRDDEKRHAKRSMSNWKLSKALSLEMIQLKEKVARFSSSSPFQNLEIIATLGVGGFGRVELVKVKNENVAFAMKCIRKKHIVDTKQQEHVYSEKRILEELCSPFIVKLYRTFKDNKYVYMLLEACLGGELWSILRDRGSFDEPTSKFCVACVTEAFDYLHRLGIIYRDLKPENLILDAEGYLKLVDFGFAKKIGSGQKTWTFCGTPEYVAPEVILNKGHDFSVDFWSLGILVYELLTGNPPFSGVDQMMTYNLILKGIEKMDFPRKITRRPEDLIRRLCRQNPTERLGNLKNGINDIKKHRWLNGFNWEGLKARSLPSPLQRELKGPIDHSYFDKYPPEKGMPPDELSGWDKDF
The assay is described as follows: Inhibition of human PKG2/PRKG2 using LRRASLG as substrate at 1 uM in presence of 32P-ATP by Hotspot assay relative to control; values are per cent of control.

Assay [2] deals with MAP kinase-activated protein kinase 2 (Homo sapiens) (UniProt P49137). Nature of the assay: Inhibition of human MAPKAPK2 using KKLNRTLSVA as substrate at 1 uM in presence of 32P-ATP by Hotspot assay relative to control; values are per cent of control.
MAP kinase-activated protein kinase 2 (Homo sapiens), sequence (P49137 whole entry, looked up): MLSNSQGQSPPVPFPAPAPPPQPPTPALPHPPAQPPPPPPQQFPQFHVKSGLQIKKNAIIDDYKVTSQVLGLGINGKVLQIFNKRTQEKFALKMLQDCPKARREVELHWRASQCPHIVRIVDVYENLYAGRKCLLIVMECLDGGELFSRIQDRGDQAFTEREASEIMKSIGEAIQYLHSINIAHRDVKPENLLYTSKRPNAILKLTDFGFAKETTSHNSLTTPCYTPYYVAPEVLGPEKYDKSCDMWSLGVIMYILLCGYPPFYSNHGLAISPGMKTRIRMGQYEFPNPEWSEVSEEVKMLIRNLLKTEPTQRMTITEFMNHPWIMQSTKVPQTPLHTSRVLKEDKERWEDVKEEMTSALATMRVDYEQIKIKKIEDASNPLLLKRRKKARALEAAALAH
In assay [3] the target is Tyrosine-protein kinase SYK (Homo sapiens) (UniProt P43405). Nature of the assay: Inhibition of human SYK using poly[Glu:Tyr] (4:1) as substrate at 1 uM in presence of 32P-ATP by Hotspot assay relative to control; values are per cent of control.
Assay [4] deals with Dual specificity protein kinase CLK4 (Homo sapiens) (UniProt Q9HAZ1). The assay is described as follows: Inhibition of human CLK4 using myelin basic protein as substrate at 1 uM in presence of 32P-ATP by Hotspot assay relative to control; values are per cent of control.
Dual specificity protein kinase CLK4 (Homo sapiens), sequence (Q9HAZ1 whole entry, looked up): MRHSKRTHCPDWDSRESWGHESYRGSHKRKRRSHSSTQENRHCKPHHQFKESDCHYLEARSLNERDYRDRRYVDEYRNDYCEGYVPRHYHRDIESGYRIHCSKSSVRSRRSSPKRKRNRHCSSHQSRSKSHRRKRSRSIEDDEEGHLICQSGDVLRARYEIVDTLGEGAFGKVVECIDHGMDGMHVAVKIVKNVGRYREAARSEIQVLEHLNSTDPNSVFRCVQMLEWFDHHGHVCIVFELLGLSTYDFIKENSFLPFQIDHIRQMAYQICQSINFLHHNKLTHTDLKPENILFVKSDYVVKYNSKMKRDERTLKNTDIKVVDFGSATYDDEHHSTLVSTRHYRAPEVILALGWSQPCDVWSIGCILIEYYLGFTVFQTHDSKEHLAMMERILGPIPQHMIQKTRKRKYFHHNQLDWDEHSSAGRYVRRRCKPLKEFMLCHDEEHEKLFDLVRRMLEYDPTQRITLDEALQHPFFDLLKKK
Assay [5] has as its target Ephrin type-A receptor 5 (Homo sapiens) (UniProt P54756). Nature of the assay: Inhibition of human EPHA5 using poly[Glu:Tyr] (4:1) as substrate at 1 uM in presence of 32P-ATP by Hotspot assay relative to control; values are per cent of control.
Assay [6] has as its target Homeodomain-interacting protein kinase 1 (Homo sapiens) (UniProt Q86Z02). Nature of the assay: Inhibition of human HIPK1 using myelin basic protein as substrate at 1 uM in presence of 32P-ATP by Hotspot assay relative to control; values are per cent of control.
The target of assay [7] is T2, Serine/threonine-protein kinase Nek11 (Homo sapiens) (UniProt Q8NG66).
T2 sequence (whole entry): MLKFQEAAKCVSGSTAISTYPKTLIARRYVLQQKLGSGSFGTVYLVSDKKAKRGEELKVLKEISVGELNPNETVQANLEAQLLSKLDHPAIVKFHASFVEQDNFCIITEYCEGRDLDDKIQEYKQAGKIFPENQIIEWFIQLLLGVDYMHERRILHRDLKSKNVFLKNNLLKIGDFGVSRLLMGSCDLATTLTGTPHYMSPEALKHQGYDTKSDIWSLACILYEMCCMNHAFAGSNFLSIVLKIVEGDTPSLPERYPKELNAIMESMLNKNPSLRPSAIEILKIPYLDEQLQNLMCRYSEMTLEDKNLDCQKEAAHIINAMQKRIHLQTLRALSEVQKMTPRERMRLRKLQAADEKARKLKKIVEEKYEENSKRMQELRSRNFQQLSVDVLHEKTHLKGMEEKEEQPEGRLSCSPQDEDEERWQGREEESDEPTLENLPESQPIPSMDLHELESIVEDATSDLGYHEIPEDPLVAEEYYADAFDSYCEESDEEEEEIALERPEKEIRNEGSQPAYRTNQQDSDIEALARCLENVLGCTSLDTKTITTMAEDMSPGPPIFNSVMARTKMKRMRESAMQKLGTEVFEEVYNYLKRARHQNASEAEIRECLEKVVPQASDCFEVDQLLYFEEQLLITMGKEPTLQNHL
Nature of the assay: Inhibition of human NEK11 using myelin basic protein as substrate at 1 uM in presence of 32P-ATP by Hotspot assay relative to control; values are per cent of control.

Assay [8] concerns the target Platelet-derived growth factor receptor alpha (Homo sapiens) (UniProt P16234). The assay is described as follows: Inhibition of human PDGFRa using poly[Glu:Tyr] (4:1) as substrate at 1 uM in presence of 32P-ATP by Hotspot assay relative to control; values are per cent of control.
The target in assay [9] is Receptor-interacting serine/threonine-protein kinase 2 (Homo sapiens) (UniProt O43353). Nature of the assay: Inhibition of human RIPK2 using myelin basic protein as substrate at 1 uM in presence of 32P-ATP by Hotspot assay relative to control; values are per cent of control.
Receptor-interacting serine/threonine-protein kinase 2 (Homo sapiens), sequence (O43353 whole entry): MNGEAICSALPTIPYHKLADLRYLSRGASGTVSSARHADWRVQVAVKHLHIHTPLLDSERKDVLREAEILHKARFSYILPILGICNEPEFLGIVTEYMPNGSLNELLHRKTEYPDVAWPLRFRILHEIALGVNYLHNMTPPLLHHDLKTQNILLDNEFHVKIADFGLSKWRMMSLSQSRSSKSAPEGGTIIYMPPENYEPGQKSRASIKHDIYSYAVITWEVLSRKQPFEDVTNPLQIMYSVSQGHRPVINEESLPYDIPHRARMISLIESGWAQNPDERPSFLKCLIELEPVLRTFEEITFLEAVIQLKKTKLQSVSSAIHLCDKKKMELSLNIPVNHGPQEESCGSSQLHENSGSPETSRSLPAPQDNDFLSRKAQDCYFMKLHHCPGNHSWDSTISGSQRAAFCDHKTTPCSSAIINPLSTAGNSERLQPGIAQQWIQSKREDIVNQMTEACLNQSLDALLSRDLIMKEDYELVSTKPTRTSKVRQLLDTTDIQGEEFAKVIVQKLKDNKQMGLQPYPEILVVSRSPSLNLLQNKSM
Assay [10] addresses Insulin receptor-related protein (Homo sapiens) (UniProt P14616). The assay is described as follows: Inhibition of human IRR/INSRR using myelin basic protein as substrate at 1 uM in presence of 32P-ATP by Hotspot assay relative to control; values are per cent of control.

Platelet-derived growth factor receptor alpha (Homo sapiens), sequence (P16234 whole entry): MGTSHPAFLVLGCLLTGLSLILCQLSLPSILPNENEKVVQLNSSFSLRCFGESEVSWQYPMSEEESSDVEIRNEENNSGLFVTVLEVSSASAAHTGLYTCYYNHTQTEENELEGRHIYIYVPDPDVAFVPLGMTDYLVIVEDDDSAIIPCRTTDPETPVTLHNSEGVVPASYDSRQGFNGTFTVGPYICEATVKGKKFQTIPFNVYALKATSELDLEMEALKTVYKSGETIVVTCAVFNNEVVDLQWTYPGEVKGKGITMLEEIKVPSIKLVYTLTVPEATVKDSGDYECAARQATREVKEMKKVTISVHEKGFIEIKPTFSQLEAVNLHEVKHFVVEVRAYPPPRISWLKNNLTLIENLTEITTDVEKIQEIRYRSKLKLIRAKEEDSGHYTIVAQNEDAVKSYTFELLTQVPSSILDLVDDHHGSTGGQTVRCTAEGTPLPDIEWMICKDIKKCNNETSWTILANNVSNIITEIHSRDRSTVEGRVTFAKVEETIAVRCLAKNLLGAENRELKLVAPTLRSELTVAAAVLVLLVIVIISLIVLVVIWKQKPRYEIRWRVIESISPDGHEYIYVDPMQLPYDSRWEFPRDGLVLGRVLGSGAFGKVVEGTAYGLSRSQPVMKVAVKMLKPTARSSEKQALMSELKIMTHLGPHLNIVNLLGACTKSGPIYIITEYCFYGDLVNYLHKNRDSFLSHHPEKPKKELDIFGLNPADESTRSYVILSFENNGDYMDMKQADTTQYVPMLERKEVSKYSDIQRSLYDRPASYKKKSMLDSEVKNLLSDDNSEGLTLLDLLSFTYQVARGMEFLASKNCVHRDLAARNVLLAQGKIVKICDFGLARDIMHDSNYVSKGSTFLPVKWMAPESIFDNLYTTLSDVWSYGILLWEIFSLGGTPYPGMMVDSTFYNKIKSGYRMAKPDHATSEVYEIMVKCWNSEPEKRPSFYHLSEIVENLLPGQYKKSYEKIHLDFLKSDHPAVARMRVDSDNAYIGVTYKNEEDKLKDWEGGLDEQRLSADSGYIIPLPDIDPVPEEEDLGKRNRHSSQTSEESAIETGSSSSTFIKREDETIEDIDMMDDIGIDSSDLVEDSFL
Homeodomain-interacting protein kinase 1 (Homo sapiens), sequence (Q86Z02 whole entry, looked up): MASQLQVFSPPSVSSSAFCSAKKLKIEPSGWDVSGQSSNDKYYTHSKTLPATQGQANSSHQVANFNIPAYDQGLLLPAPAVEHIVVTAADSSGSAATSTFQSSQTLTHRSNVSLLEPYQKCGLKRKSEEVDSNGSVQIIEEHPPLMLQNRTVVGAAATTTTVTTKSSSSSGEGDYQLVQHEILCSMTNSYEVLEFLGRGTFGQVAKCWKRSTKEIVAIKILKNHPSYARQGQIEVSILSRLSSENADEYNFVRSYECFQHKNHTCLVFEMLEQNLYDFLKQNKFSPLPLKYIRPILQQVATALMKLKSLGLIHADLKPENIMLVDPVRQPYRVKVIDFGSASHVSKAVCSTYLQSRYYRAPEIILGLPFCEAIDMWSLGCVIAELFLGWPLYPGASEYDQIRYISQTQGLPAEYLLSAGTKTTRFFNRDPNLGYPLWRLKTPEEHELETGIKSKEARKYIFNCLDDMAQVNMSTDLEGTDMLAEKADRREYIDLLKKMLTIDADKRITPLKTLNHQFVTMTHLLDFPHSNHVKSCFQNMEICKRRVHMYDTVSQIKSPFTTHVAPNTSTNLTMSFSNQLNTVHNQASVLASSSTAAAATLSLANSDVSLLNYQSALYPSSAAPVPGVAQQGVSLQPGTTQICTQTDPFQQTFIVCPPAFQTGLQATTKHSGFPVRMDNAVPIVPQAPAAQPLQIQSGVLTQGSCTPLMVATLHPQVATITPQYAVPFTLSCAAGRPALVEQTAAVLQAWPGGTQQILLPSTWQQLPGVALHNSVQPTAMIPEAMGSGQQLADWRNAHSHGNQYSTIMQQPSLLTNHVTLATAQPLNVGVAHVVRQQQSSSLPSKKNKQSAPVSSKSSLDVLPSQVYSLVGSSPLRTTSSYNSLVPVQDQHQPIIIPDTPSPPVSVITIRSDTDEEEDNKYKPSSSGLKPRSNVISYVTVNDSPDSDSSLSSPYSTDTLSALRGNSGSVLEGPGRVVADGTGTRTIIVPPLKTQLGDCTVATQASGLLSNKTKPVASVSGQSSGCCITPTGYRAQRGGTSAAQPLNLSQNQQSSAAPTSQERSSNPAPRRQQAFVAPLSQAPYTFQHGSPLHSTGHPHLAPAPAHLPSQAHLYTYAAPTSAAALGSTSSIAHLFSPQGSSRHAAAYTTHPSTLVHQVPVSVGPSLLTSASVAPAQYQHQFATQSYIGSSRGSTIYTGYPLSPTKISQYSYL
Insulin receptor-related protein (Homo sapiens), sequence (P14616 27-742 limits assumed): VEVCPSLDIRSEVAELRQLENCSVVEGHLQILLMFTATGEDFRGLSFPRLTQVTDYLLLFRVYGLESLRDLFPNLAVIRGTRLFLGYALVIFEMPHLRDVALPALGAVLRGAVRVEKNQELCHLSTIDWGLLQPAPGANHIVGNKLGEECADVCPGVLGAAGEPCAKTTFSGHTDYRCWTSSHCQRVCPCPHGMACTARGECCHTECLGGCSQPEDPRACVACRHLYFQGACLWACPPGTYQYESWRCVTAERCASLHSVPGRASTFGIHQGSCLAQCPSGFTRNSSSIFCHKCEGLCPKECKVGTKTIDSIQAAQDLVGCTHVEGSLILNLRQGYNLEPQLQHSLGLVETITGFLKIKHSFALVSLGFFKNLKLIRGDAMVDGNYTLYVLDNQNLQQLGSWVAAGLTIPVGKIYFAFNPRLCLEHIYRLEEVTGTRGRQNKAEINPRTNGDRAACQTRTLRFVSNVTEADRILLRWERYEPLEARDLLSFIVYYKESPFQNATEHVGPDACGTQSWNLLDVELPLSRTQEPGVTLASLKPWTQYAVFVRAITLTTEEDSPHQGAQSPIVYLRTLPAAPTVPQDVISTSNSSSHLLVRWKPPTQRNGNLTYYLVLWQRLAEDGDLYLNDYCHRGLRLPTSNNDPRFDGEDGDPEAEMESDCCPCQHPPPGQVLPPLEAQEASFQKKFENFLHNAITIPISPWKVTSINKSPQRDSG
Insulin receptor-related protein (Homo sapiens), sequence (P14616 747-1297 limits assumed): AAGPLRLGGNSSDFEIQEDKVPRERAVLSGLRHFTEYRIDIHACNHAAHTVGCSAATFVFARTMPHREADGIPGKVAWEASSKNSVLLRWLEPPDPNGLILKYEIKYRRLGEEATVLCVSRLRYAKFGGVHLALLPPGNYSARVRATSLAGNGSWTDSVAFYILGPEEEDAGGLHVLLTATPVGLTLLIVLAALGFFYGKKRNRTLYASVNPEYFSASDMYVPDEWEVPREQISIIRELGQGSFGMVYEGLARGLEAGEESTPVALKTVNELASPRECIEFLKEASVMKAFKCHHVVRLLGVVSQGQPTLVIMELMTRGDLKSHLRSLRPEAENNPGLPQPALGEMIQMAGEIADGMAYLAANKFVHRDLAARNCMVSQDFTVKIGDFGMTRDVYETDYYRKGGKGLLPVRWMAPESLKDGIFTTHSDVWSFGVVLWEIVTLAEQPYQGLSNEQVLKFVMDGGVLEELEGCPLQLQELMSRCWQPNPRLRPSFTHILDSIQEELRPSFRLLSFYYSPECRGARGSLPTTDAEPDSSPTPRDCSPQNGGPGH

With `CC(C)S(=O)(=O)c1ccc2nccc(Nc3ccc4scnc4c3)c2c1`, the residual activity in [1] amounted to 94.6%; in assay [2], 103%; in [3], 93.3%; in [4], 92.2%; in assay [5], 70.6%; in assay [6], 88.3%. Moreover, the residual activity came out at 89.5% in assay [7], 74.6% in assay [8], 20.7% in [9] and 98.6% in assay [10].

Consider `CNC(=O)c1ccc2c(c1)ncn2-c1ccc(CC(=O)OC(C)(C)C)cc1`, for which the residual activity in assay [1] is 96.7%; in [2] it was 100%; in [3], 87.5%; in assay [4] it was 93.8%; in assay [5], 96.7%; in assay [6], 87.5%. The residual activity came out at 102% in assay [7], 32.7% in [8], 82.3% in assay [9] and 93.3% in assay [10].

Consider `Cc1cc(-c2cnc(N)c3c(-c4ccc5scnc5c4)csc23)n(C)n1`, for which the residual activity in assay [1] was found to be 70.1%; in [2] it was 89.1%; in [3], 92.8%; in [4], 84.6%; in assay [5] it was 53.4%; in assay [6], 102%. Also, the residual activity in assay [7] was determined as 97.3%; in assay [8] it was 9.84%; in [9], 13.6%; in assay [10] it was 86.7%.
